The source of these data is patent US9090655B2, “Low hemolytic antimicrobial peptide, pharmaceutical composition and use thereof” (priority 2010, dated 2015).

Common to all, as to assay type: cell-based
Data set [1] deals with human red blood cells (hRBC). As to the kind of experiment: Hemolytic assay. The following applies: for lysis percentage: hRBC 5% v/v, one hour at 37° C. On the procedure:
Melittin, Pem-2252 L and Pem-2254 L were tested for hemolysis against human red blood cells (hRBC). […] The hRBCs with EDTA were rinsed 3 times with PBS (800×g, 10 min) and re-suspended in PBS. The hRBCs were diluted into 10% with phosphate-buffered saline and placed 50 μl into each eppendorf. The peptides dissolved in PBS were then added to 50 μl of 10% solution of hRBCs and incubated for an hour at 37° C. (final hRBC concentration, 5% v/v). The samples were centrifuged at 800 g for 10 min […]. Various concentrations of peptides were incubated with pretreated hRBC and the percentage of hemolysis determined (Percentage lysis, Zero hemolysis (blank) and 100% hemolysis were determined in PBS buffer and 1% Triton X-100). […] At 5 μg/ml, 50 μg/ml and 400 μg/ml, its lysis percentages were 0.45%, 1.52% and 16.35%, respectively.

The test system of data set [2] is outer membrane of E. coli. Kind of data set: Outer membrane permeabilization, NPN uptake assay. The following applies: intact E. coli cells, NPN fluorescence. The method, then: The outer membrane permeabilization activity of the peptide variants was determined by the 1-N-phenylnaphthylamine (NPN) uptake assay, using intact cells of E. coli. […] Since NPN is hydrophobic, it provides a direct measurement of the degree of outer membrane permeability. E. coli take up little or no NPN in a general condition. […] Fluorescence would vary with the concentration of peptide. The steps of the embodiment were described as follow. One ml of overnight culture was used to inoculate 50 ml of media and incubated at 37° C. with shaking. The culture was permitted to grow to an OD600 of 0.4 to 0.6, cells were spun down at 3500 rpm for 10 minutes, washed, and re-suspended in buffer to an OD600 of 0.5. The OD600 was recorded, 1 ml of cells (OD600=0.5) was added to the cuvette and measured after 2-5 seconds. 20 μl NPN 0.5 mM, shaken to mix, was added and measured after 2-5 seconds. 10 ul antibiotic 100× desired final concentration was added, shaken to mix, and measured until the maximal value was reached within 1 to 5 minutes. The concentration of peptide leading to 50% of the maximum increase in NPN uptake was recorded as the P50. As results shown in table 4, all of the peptides were capable of interacting with membrane.

Data set [3] deals with Staphylococcus aureus (ATCC 29213). The method, then: (§1) The in vitro antimicrobial activities of antimicrobial agents were tested using minimum inhibition concentration (MIC) tests. The MIC value is the lowest concentration of peptide at which the visible growth of test organisms was inhibited and reduced. The test strains herein were E. coli (ATCC 25922), Pseudomonas aeruginosa (ATCC 27853) and Staphylococcus aureus (ATCC 29213).
(§2) Overnight cultures of the test organisms were diluted to produce an inoculum containing approximately 10^5 colonies in Meuller-Hinton broth (MHB). Peptide solution with different concentrations was added to diluted culture of the test organisms. After 18 hours of incubation at 37° C., the results were assayed for turbidity as an indicator of cell growth. MIC values for the peptides were measured three times at different time points. […] On the other hand, modifications for primary or secondary structures without influencing their activity, such as acetylation, amidation, formylation, hydroxylation, lipid modification, methylation or phosphorylation, were performed herein.

Data set [4] deals with Pseudomonas aeruginosa (ATCC 27853). On the procedure: as §1, §2
For a further data set, the system named is E. coli (ATCC 25922). On the procedure:
as §1, §2

The next data set has as its system Pseudomonas aeruginosa. An excerpt:
(§3) The MIC values against various strains are shown in table 3, Pem-2251 L and Pem-2254 L have great microbial activity as well.

The next data set deals with Bacillus pumilus.
Description: as §3

The next data set concerns Bacillus substilis.
Description: as §3

Data set [5] concerns Staphylococcus epidermidis.
Description: as §3

The test system of another data set is Bacillus cereus.
Description: as §3

The subject of the next data set is E. coli.
Description: as §3

The test system of a further data set is Staphylococcus aureus.
Description: as §3

[6] abbreviates: S. aureus ATCC 29213, MHB, 18 hours at 37° C., mean of three.
[7] abbreviates: P. aeruginosa ATCC 27853, MHB, 18 hours at 37° C., mean of three.
Where [8] appears, read: E. coli ATCC 25922, MHB, 18 hours at 37° C., mean of three.

Where two headings read alike, the source gives them in different places. Where no end group is shown, it is not given here.

In the case of `CC[C@H](C)[C@H](NC(=O)CN)C(=O)NCC(=O)N[C@@H](C)C(=O)N[C@H](C(=O)N[C@@H](CC(C)C)C(=O)N[C@@H](CCCCN)C(=O)N[C@H](C(=O)N[C@@H](CC(C)C)C(=O)N[C@H](C(=O)N[C@H](C(=O)NCC(=O)N[C@@H](CC(C)C)C(=O)N1CCC[C@H]1C(=O)N[C@@H](C)C(=O)N[C@@H](CC(C)C)C(=O)N[C@H](C(=O)N[C@@H](CO)C(=O)N[C@@H](Cc1c[nH]c2ccccc12)C(=O)N[C@H](C(=O)N[C@@H](CCCCN)C(=O)N[C@@H](CCCNC(=N)N)C(=O)N[C@@H](CCCCN)C(=O)N[C@@H](CCCNC(=N)N)C(=O)N[C@@H](CCC(N)=O)C(=O)N[C@@H](CCC(N)=O)C(N)=O)[C@@H](C)CC)[C@@H](C)CC)[C@@H](C)O)[C@@H](C)O)C(C)C)C(C)C` [Melittin, reference compound], the lysis percentage in [1] (5 μg/ml peptide) is reported as 50%; in [1] (50 μg/ml peptide), 100%; in data set [1] (400 μg/ml peptide), 100%.
Broadly, the MIC is the lowest concentration that inhibits growth of the organism. Low readings indicate inhibition by little substance, high ones a need for much substance. On to “KFKRWLA-NH2 [Pem-1001 L, Lys Phe Lys Arg Trp Leu Ala]”, for which the “P50 (concentration of peptide leading to 50% of the maximum increase in NPN uptake)” value in data set [2] came out at 6.25 µg/mL. In addition, the MIC was found to be 50 µg/mL in data set [3] (ATCC 29213, 18 h); 50 µg/mL in data set [4] (ATCC 27853, 18 h); 50 µg/mL against E. coli (ATCC 25922) (ATCC 25922, 18 h).
In the case of “KKFRRFVRFIAKK-NH2 [Pem-2253 L, Lys Lys Phe Arg Arg Phe Val Arg Phe Ile Ala Lys Lys]”, the MIC in data set [3] (ATCC 29213, 18 h) worked out at 12.5 µg/mL; in data set [4] (ATCC 27853, 18 h) it was 12.5 µg/mL; against E. coli (ATCC 25922) (ATCC 25922, 18 h) it was 12.5 µg/mL.
Regarding “KKWRAWLKWLAKK-NH2 [Pem-2251 L, Lys Lys Trp Arg Ala Trp Leu Lys Trp Leu Ala Lys Lys]”, in data set [2], the “P50 (concentration of peptide leading to 50% of the maximum increase in NPN uptake)” value amounted to 6.25 µg/mL. For the same molecule, the MIC in [3] (ATCC 29213, 18 h) was 12.5 µg/mL; in [4] (ATCC 27853, 18 h) it was 6.25 µg/mL; in the data set with E. coli (ATCC 25922) (ATCC 25922, 18 h), 1.565 µg/mL; in the data set on Pseudomonas aeruginosa it was 6.25 µg/mL; in the data set with Bacillus pumilus it was 6.25 µg/mL; against Bacillus substilis, 3.125 µg/mL. The MIC in [5] came out at 3.125 µg/mL; against Bacillus cereus, 6.25 µg/mL; against E. coli it was 3.125 µg/mL; against Staphylococcus aureus, 3.125 µg/mL.
For the molecule “KKWRKWLKWLAKK-NH2 [Pem-2254 L, Lys Lys Trp Arg Lys Trp Leu Lys Trp Leu Ala Lys Lys]”, the lysis percentage in data set [1] (5 μg/ml peptide) came out at 0.45%; in [1] (50 μg/ml peptide), 1.52%; in data set [1] (400 μg/ml peptide) it was 16.35%. Besides, the MIC is 1.565 µg/mL in data set [4] (ATCC 27853, 18 h); 1.565 µg/mL against E. coli (ATCC 25922) (ATCC 25922, 18 h); 3.125 µg/mL against Pseudomonas aeruginosa; 3.125 µg/mL in the data set with Bacillus pumilus; 3.125 µg/mL in the data set with Bacillus substilis; 1.565 µg/mL in data set [5]. The MIC against Bacillus cereus was 6.25 µg/mL; against E. coli, 1.565 µg/mL; against Staphylococcus aureus it was 1.565 µg/mL.
“KKWRKWLRAIAKK-NH2 [Pem-2252 L, Lys Lys Trp Arg Lys Trp Leu Arg Ala Ile Ala Lys Lys]”: the lysis percentage was 3.12% in data set [1] (5 μg/ml peptide); 0.45% in [1] (5 μg/ml peptide, listed as Pem-2252); 9.82% in data set [1] (50 μg/ml peptide); 1.52% in data set [1] (50 μg/ml peptide, listed as Pem-2252); 37.66% in [1] (400 μg/ml peptide); 16.35% in data set [1] (400 μg/ml peptide, listed as Pem-2252). Moreover, the “hemolytic activity against hRBC, in words” value in [1] (compared with other antimicrobial peptides) was “less hemolytic against hRBC than other antimicrobial peptides”. Further, the MIC is 25 µg/mL in data set [3] (ATCC 29213, 18 h); 25 µg/mL in data set [4] (ATCC 27853, 18 h); 25 µg/mL against E. coli (ATCC 25922) (ATCC 25922, 18 h).
“KWKIWLK-NH2 [Pem-1003 L, Lys Trp Lys Ile Trp Leu Lys]”: the MIC amounted to 12.5 µg/mL in data set [3] (ATCC 29213, 18 h); 12.5 µg/mL in [4] (ATCC 27853, 18 h); 25 µg/mL with E. coli (ATCC 25922) (ATCC 25922, 18 h).
Consider “Lys Lys Phe Arg Arg Phe Val Arg Phe Ile Ala Lys Lys (KKFRRFVRFIAKK; not fully specified (bridges); printed as Lys Lys Phe Arg Arg Phe Val Arg Phe Ile Ala Lys Lys; also: cyclic topology, ring type not given here) [Pem-2253 C]”, for which the MIC (in data set [3] (setting [6]); in data set [4] (setting [7]); in the data set on E. coli (ATCC 25922) (setting [8])) was 50 µg/mL in each case.
“Lys Lys Trp Arg Ala Trp Leu Lys Trp Leu Ala Lys Lys (KKWRAWLKWLAKK; not fully specified (bridges); printed as Lys Lys Trp Arg Ala Trp Leu Lys Trp Leu Ala Lys Lys; also: cyclic topology, ring type not given here) [Pem-2251 C]”: the MIC is 50 µg/mL in [3] (setting [6]), 25 µg/mL in [4] (setting [7]) and 25 µg/mL against E. coli (ATCC 25922) (setting [8]).
Turning to “Lys Lys Trp Arg Lys Trp Leu Arg Ala Ile Ala Lys Lys (KKWRKWLRAIAKK; not fully specified (bridges); printed as Lys Lys Trp Arg Lys Trp Leu Arg Ala Ile Ala Lys Lys; also: cyclic topology, ring type not given here) [Pem-2252 C]”, the MIC (in [3] (setting [6]); in [4] (setting [7]); in the data set on E. coli (ATCC 25922) (setting [8])) was above 50 µg/mL each time.
Take “Lys Lys Trp Arg Lys Trp Leu Lys Trp Leu Ala Lys Lys (KKWRKWLKWLAKK; not fully specified (bridges); printed as Lys Lys Trp Arg Lys Trp Leu Lys Trp Leu Ala Lys Lys; also: cyclic topology, ring type not given here) [Pem-2254 C]”: the MIC in [3] (setting [6]) was determined as 50 µg/mL; in [4] (setting [7]), 25 µg/mL; against E. coli (ATCC 25922) (setting [8]), 25 µg/mL.
As for “Lys Phe Arg Ala Trp Val Arg (KFRAWVR; not fully specified (bridges); printed as Lys Phe Arg Ala Trp Val Arg; also: cyclic topology, ring type not given here) [Pem-1002 C]”, the minimal inhibitory concentration (MIC) (in [3] (setting [6]); in data set [4] (setting [7]); against E. coli (ATCC 25922) (setting [8])) was above 50 µg/mL in each case.
For “Lys Phe Lys Arg Trp Leu Ala (KFKRWLA; not fully specified (bridges); printed as Lys Phe Lys Arg Trp Leu Ala; also: cyclic topology, ring type not given here) [Pem-1001 C]”, the minimum inhibitory concentration (MIC) (in [3] (setting [6]); in data set [4] (setting [7]); against E. coli (ATCC 25922) (setting [8])) was above 50 µg/mL in each case.
